Measured values published in patent US9321758B2, “Amorphous salt of a macrocyclic inhibitor of HCV” (Janssen Pharmaceuticals, Inc., priority 2009, dated 2016).

Experiments:
[1] = Water solubility; type: physicochemical
[2] = Clinical investigations, tolerability in patients; type: in vivo
[3] = Adsorption-Desorption (DVS), dynamic vapor sorption; type: physicochemical; conditions: for water adsorbed: at high relative humidity
Method: Amorphous TMC435 (19 mg) was transferred into a SMS (Surface Measurement Systems Ltd.) dynamic vapor sorption model DVS-1 and the weight change was recorded with respect to the atmospheric humidity at 25° C.

[4] = Long-term storage stability of the amorphous form by powder XRD; type: physicochemical; conditions: stored during 1 year, 8 months and 23 days
Method: This means that the amorphous Na salt of TMC435 allows stable storage during a normal shelf life period. X-ray powder diffraction (XRPD) analysis was carried out on a Philips X′PertPRO MPD diffractometer PW3050/60 with generator PW3040. The instrument was equipped with a Cu LFF X-ray tube PW3373/10. The compound was spread on a zero background sample holder.

SMILES	water solubility [1]	tolerability in patients [2]	moisture remaining on the product during the desorption cycle ([3]; DVS desorption cycle, 25° C.) [%]	weight loss during the initial drying step ([3]; DVS, drying 60 min under dry nitrogen, 25° C.) [%]	water adsorbed ([3]; 25° C.)	water adsorbed ([3]; 25° C., listed as sodium salt of compound I)	stability when water is absorbed ([3]; brought into contact with humidity)	hygroscopicity ([3]; listed as Amorphous Sodium Salt Prepared According to Example 1)	hygroscopicity ([3]; listed as sodium salt of compound I)	solid form after DVS (IR and XRD) ([3]; product obtained after DVS)	powder XRD pattern after storage compared with pattern shortly after preparation [4]
COc1ccc2c(O[C@@H]3C[C@H]4C(=O)N[C@]5(C(=O)NS(=O)(=O)C6CC6)C[C@H]5/C=C\CCCCN(C)C(=O)[C@@H]4C3)cc(-c3nc(C(C)C)cs3)nc2c1C [TMC435, (1R,4R,6S,15R,17R)-cis-N-[17-[2-(4-isopropylthiazol-2-yl)-7-methoxy-8-methyl-quinolin-4-yloxy]-13-methyl-2,14-dioxo-3,13-diazatricyclo[13.3.0.0^4,6]octadec-7-ene-4-carbonyl] (cyclopropyl)sulfonamide]	poorly water-soluble	well-tolerated									
COc1ccc2c(O[C@@H]3C[C@H]4C(=O)N[C@]5(C(=O)[N-]S(=O)(=O)C6CC6)C[C@H]5/C=C\CCCCN(C)C(=O)[C@@H]4C3)cc(-c3nc(C(C)C)cs3)nc2c1C.[Na+] [amorphous sodium salt of TMC435]			1.61	2.03	up to 13%	up to 13.1%	remains stable	Hygroscopic	hygroscopic	remained amorphous	remained essentially unchanged
